The values that follow are results of earlier work, collected in US11661525B2, “Inkjet ink and inkjet recording apparatus” (KYOCERA Document Solutions Inc., priority 2020, dated 2023).

Molecules are shown by their SMILES. Where two headings read alike, the source gives them in different places.

The LogP is a log measure of how a compound divides between an organic and an aqueous phase.

Setting [1] is: literature values of the octanol/water partition coefficient of representative water-soluble organic solvents.

On to `OCCOCCOCCO` [Triethylene glycol], for which the lipophilicity (LogP) under setting [1] is recorded as −1.98.

With `CCOCCOCCO` [Diethylene glycol monoethyl ether], the log partition coefficient (LogP) under setting [1] is on record as −0.15.

Turning to `CCCCCCC(O)CO` (centres unmarked) [1,2-Octanediol], the LogP under setting [1] was 0.66.

For `CC(CCO)CCO` [3-Methyl-1,5-pentanediol], the log partition coefficient (LogP) under setting [1] is given as 0.07; the LogP (octanol/water partition coefficient of the water-soluble organic solvent used in the inks (Tables 6 and 8)) was 0.01.
